# Measured values from patent US12559529B2, “NPY2 receptor agonists” (Boehringer Ingelheim International GmbH, priority 2019, dated 2026).
# pKi: −log10 of the molar value. *1 amine or outer side, *2 acyl side, *3 side chain or, on linkers, in order; H or OH if unused. Where a SMILES comes first, the peptide text is derived from it. Side-chain parts run from the residue outwards. The star is where a group is joined. C18 diacid = O=C(O)CCCCCCCCCCCCCCCCC(=O)*; γGlu = O=C(O)[C@H](CCC(=O)[*:2])N[*:1]; Isovaleryl = CC(C)CC(=O)*; AEEA = NCCOCCOCC(=O)O
# Target: T1, Human Neuropeptide Y2 Receptor (Homo sapiens, UniProt P49146)
# T1 construct: purchased CHEMICON HTS066M
# T1 sequence (P49146 1-381): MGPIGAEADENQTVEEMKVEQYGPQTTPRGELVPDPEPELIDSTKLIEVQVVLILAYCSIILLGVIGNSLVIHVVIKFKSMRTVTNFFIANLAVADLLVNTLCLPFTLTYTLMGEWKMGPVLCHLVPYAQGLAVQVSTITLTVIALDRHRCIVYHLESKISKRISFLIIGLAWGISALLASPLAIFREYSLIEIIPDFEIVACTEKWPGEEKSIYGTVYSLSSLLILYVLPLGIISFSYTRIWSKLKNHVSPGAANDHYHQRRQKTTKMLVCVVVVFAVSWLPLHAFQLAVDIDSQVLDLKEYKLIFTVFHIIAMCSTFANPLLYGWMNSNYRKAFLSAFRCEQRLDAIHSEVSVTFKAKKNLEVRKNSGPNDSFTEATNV
# Test: Radioligand binding competition assay (RLB)
# Conditions: Table 3; human 125I-PYY (1-36) 0.02 nM, Y2 receptor membranes; read-out: Ki
# In short: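 Competition binding at commercial human NPY Y2 membrane preparations, 0.5 μg protein per well, 2 h incubation at room temperature. Bound and free ligand were separated on GF/C filters and counted; IC50 was fitted by nonlinear regression.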
row,SMILES,pKi
1,"CC(C)CC(=O)N[C@@H](C)C(=O)N1CCC[C@H]1C(=O)N[C@@H](CCC(=O)O)C(=O)N[C@@H](CCCCNC(=O)COCCOCCNC(=O)COCCOCCNC(=O)CC[C@H](NC(=O)CCCCCCCCCCCCCCCCC(=O)O)C(=O)O)C(=O)N1CCC[C@H]1C(=O)N[C@@H](CCC(=O)O)C(=O)N[C@@H](CCC(=O)O)C(=O)N[C@@H](CCC(=O)O)C(=O)N[C@@H](C)C(=O)N[C@@H](CO)C(=O)N1CCC[C@H]1C(=O)N[C@@H](CCC(=O)O)C(=O)N[C@@H](CCC(=O)O)C(=O)N[C@@H](CC(C)C)C(=O)N[C@@H](CCC(N)=O)C(=O)N[C@@H](C)C(=O)N[C@@H](Cc1ccc(O)cc1)C(=O)N[C@@H](Cc1ccc(O)cc1)C(=O)N[C@H](C(=O)N[C@@H](CO)C(=O)N[C@@H](CC(C)C)C(=O)N[C@@H](CCCNC(=N)N)C(=O)N[C@@H](Cc1c[nH]cn1)C(=O)N[C@@H](Cc1ccc(O)cc1)C(=O)N[C@@H](Cc1ccc(O)cc1)C(=O)N[C@@H](CC(N)=O)C(=O)N[C@@H](Cc1c[nH]c2ccccc12)C(=O)N[C@@H](CC(C)C)C(=O)N[C@H](C(=O)N[C@@H](CCCNC(=N)N)C(=O)N[C@@H](CCC(N)=O)C(=O)N[C@@H](CCCNC(=N)N)C(=O)N[C@@H](Cc1ccc(O)cc1)C(N)=O)[C@@H](C)O)C(C)C [Compound 68, N{alpha-4}-(3-methylbutanoyl)-N{epsilon-7}-[2-(2-{2-[2-(2-{2-[(4S)-4-carboxy-4-(17-carboxyheptadecanamido)butanamido]ethoxy}ethoxy)acetamido]ethoxy}ethoxy)acetamido]-[4A,7K,9E,11E,18Q,19A,22V,28Y,30W,31L]hPYY (4-36)] (Isovaleryl-APEK([AEEA-AEEA-γGlu-C18 diacid])PEEEASPEELQAYYVSLRHYYNWLTRQRY-NH2)",8.07
2,"CC(C)CC(=O)N[C@@H](C)C(=O)N1CCC[C@H]1C(=O)N[C@@H](CCC(=O)O)C(=O)N[C@@H](CCCCNC(=O)COCCOCCNC(=O)COCCOCCNC(=O)CC[C@H](NC(=O)CCCCCCCCCCCCCCCCC(=O)O)C(=O)O)C(=O)N1CCC[C@H]1C(=O)N[C@@H](CCC(=O)O)C(=O)N[C@@H](CCC(=O)O)C(=O)N[C@@H](CC(=O)O)C(=O)N[C@@H](CO)C(=O)N[C@@H](CO)C(=O)N[C@@H](C)C(=O)N[C@@H](CCC(=O)O)C(=O)N[C@@H](CCC(=O)O)C(=O)N[C@@H](CC(C)C)C(=O)N[C@@H](CCC(N)=O)C(=O)N[C@@H](CCCNC(=N)N)C(=O)N[C@@H](Cc1ccc(O)cc1)C(=O)N[C@@H](Cc1ccc(O)cc1)C(=O)N[C@H](C(=O)N[C@@H](CO)C(=O)N[C@@H](CC(C)C)C(=O)N[C@@H](CCCNC(=N)N)C(=O)N[C@@H](Cc1c[nH]cn1)C(=O)N[C@@H](Cc1ccc(O)cc1)C(=O)N[C@@H](Cc1ccc(O)cc1)C(=O)N[C@@H](CC(N)=O)C(=O)N[C@@H](Cc1c[nH]c2ccccc12)C(=O)N[C@@H](CC(C)C)C(=O)N[C@H](C(=O)N[C@@H](CCCNC(=N)N)C(=O)N[C@@H](CCC(N)=O)C(=O)N[C@@H](CCCNC(=N)N)C(=O)N[C@@H](Cc1ccc(O)cc1)C(N)=O)[C@@H](C)O)C(C)C [Compound 69, N{alpha-4}-(3-methylbutanoyl)-N{epsilon-7}-[2-(2-{2-[2-(2-{2-[(4S)-4-carboxy-4-(17-carboxyheptadecanamido)butanamido]ethoxy}ethoxy)acetamido]ethoxy}ethoxy)acetamido]-[4A,7K,9E,12S,14A,18Q,22V,28Y,30W,31L]hPYY (4-36)]",8.24
3,"CC(C)CC(=O)N[C@@H](C)C(=O)N1CCC[C@H]1C(=O)N[C@@H](CCC(=O)O)C(=O)N[C@@H](CCCCNC(=O)COCCOCCNC(=O)COCCOCCNC(=O)CC[C@H](NC(=O)CCCCCCCCCCCCCCCCC(=O)O)C(=O)O)C(=O)N1CCC[C@H]1C(=O)N[C@@H](CCC(=O)O)C(=O)N[C@@H](CCC(=O)O)C(=O)N[C@@H](CC(=O)O)C(=O)N[C@@H](C)C(=O)N[C@@H](CO)C(=O)N[C@@H](CCC(=O)O)C(=O)N[C@@H](CCC(=O)O)C(=O)N[C@@H](CCC(=O)O)C(=O)N[C@@H](CC(C)C)C(=O)N[C@@H](CCC(N)=O)C(=O)N[C@@H](CCCNC(=N)N)C(=O)N[C@@H](Cc1ccc(O)cc1)C(=O)N[C@@H](Cc1ccc(O)cc1)C(=O)N[C@H](C(=O)N[C@@H](CCC(=O)O)C(=O)N[C@@H](CC(C)C)C(=O)N[C@@H](CCCNC(=N)N)C(=O)N[C@@H](Cc1c[nH]cn1)C(=O)N[C@@H](Cc1ccc(O)cc1)C(=O)N[C@@H](Cc1ccc(O)cc1)C(=O)N[C@@H](CC(N)=O)C(=O)N[C@@H](Cc1c[nH]c2ccccc12)C(=O)N[C@@H](CC(C)C)C(=O)N[C@H](C(=O)N[C@@H](CCCNC(=N)N)C(=O)N[C@@H](CCC(N)=O)C(=O)N[C@@H](CCCNC(=N)N)C(=O)N[C@@H](Cc1ccc(O)cc1)C(N)=O)[C@@H](C)O)C(C)C [Compound 77, N{alpha-4}-(3-methylbutanoyl)-N{epsilon-7}-[2-(2-{2-[2-(2-{2-[(4S)-4-carboxy-4-(17-carboxyheptadecanamido)butanamido]ethoxy}ethoxy)acetamido]ethoxy}ethoxy)acetamido]-[4A,7K,9E,14E,18Q,22V,23E,28Y,30W,31L]hPYY (4-36)]",8.21

# Compounds with a higher pKi, results first:
row,pKi,SMILES
1,8.28,"CC(C)CC(=O)N[C@@H](C)C(=O)N1CCC[C@H]1C(=O)N[C@@H](CCC(=O)O)C(=O)N[C@@H](CCCCNC(=O)COCCOCCNC(=O)COCCOCCNC(=O)CC[C@H](NC(=O)CCCCCCCCCCCCCCCCC(=O)O)C(=O)O)C(=O)N1CCC[C@H]1C(=O)N[C@@H](CCC(=O)O)C(=O)N[C@@H](CCC(=O)O)C(=O)N[C@@H](CCC(=O)O)C(=O)N[C@@H](C)C(=O)N[C@@H](CO)C(=O)N1CCC[C@H]1C(=O)N[C@@H](CO)C(=O)N[C@@H](CCC(=O)O)C(=O)N[C@@H](CC(C)C)C(=O)N[C@@H](CCC(N)=O)C(=O)N[C@@H](CCCNC(=N)N)C(=O)N[C@@H](Cc1ccc(O)cc1)C(=O)N[C@@H](Cc1ccc(O)cc1)C(=O)N[C@H](C(=O)N[C@@H](CO)C(=O)N[C@@H](CC(C)C)C(=O)N[C@@H](CCCNC(=N)N)C(=O)N[C@@H](Cc1c[nH]cn1)C(=O)N[C@@H](Cc1ccc(O)cc1)C(=O)N[C@@H](Cc1ccc(O)cc1)C(=O)N[C@@H](CC(N)=O)C(=O)N[C@@H](Cc1c[nH]c2ccccc12)C(=O)N[C@@H](CC(C)C)C(=O)N[C@H](C(=O)N[C@@H](CCCNC(=N)N)C(=O)N[C@@H](CCC(N)=O)C(=O)N[C@@H](CCCNC(=N)N)C(=O)N[C@@H](Cc1ccc(O)cc1)C(N)=O)[C@@H](C)O)C(C)C [Compound 71, N{alpha-4}-(3-methylbutanoyl)-N{epsilon-7}-[2-(2-{2-[2-(2-{2-[(4S)-4-carboxy-4-(17-carboxyheptadecanamido)butanamido]ethoxy}ethoxy)acetamido]ethoxy}ethoxy)acetamido]-[4A,7K,9E,11E,15S,18Q,22V,28Y,30W,31L]hPYY (4-36)] (Isovaleryl-APEK([AEEA-AEEA-γGlu-C18 diacid])PEEEASPSELQRYYVSLRHYYNWLTRQRY-NH2)"
2,8.31,"CC(C)CC(=O)N[C@@H](C)C(=O)N1CCC[C@H]1C(=O)N[C@@H](CCC(=O)O)C(=O)N[C@@H](CCCCNC(=O)COCCOCCNC(=O)COCCOCCNC(=O)CC[C@H](NC(=O)CCCCCCCCCCCCCCCCC(=O)O)C(=O)O)C(=O)N1CCC[C@H]1C(=O)N[C@@H](CCC(=O)O)C(=O)N[C@@H](CCC(=O)O)C(=O)N[C@@H](C)C(=O)N[C@@H](C)C(=O)N[C@@H](CO)C(=O)N1CCC[C@H]1C(=O)N[C@@H](CCC(=O)O)C(=O)N[C@@H](CCC(=O)O)C(=O)N[C@@H](CC(C)C)C(=O)N[C@@H](CCC(N)=O)C(=O)N[C@@H](CCCNC(=N)N)C(=O)N[C@@H](Cc1ccc(O)cc1)C(=O)N[C@@H](CCC(=O)O)C(=O)N[C@H](C(=O)N[C@@H](CO)C(=O)N[C@@H](CC(C)C)C(=O)N[C@@H](CCCNC(=N)N)C(=O)N[C@@H](Cc1c[nH]cn1)C(=O)N[C@@H](Cc1ccc(O)cc1)C(=O)N[C@@H](Cc1ccc(O)cc1)C(=O)N[C@@H](CC(N)=O)C(=O)N[C@@H](Cc1c[nH]c2ccccc12)C(=O)N[C@@H](CC(C)C)C(=O)N[C@H](C(=O)N[C@@H](CCCNC(=N)N)C(=O)N[C@@H](CCC(N)=O)C(=O)N[C@@H](CCCNC(=N)N)C(=O)N[C@@H](Cc1ccc(O)cc1)C(N)=O)[C@@H](C)O)C(C)C [Compound 70, N{alpha-4}-(3-methylbutanoyl)-N{epsilon-7}-[2-(2-{2-[2-(2-{2-[(4S)-4-carboxy-4-(17-carboxyheptadecanamido)butanamido]ethoxy}ethoxy)acetamido]ethoxy}ethoxy)acetamido]-[4A,7K,9E,11A,18Q,21E,22V,28Y,30W,31L]hPYY (4-36)] (Isovaleryl-APEK([AEEA-AEEA-γGlu-C18 diacid])PEEAASPEELQRYEVSLRHYYNWLTRQRY-NH2)"
